Structures can show the parent of a compound that is named as a salt.
Experiments:
[1] = tested on: ocular surface barrier; settings: mouse model, desiccating stress; cited from earlier work
[2] = tested on: HCLE monolayer cell cultures; assay: Vital dye staining assay (fluorescein), oxidative stress, monolayer cells; assay type: cell-based, human; settings: 3 mM tBHP, 2 hours; Genistein 200 uM, Chlorpromazine 8 ug/mL, Dynasore 40 uM; FIG. 2B
Source text: (§1) The purpose of this study was to investigate mechanisms of dye uptake relevant to ocular surface disease. We hypothesized that stimulation of plasma membrane remodeling by sublethal cell damage would result in vital dye uptake into endocytic repair vesicles. Oxidative stress has been implicated in ocular surface damage due to dry eye and many other ocular surface disorders, thus we chose this as the damaging stress for our study. An aqueous stock solution of tert-butyl hydroperoxide (tBHP) was diluted into the medium of human cell cultures or mouse eye organ cultures as we have previously described. The final dilution of tBHP used for cell culture experiments was 3 mM or 10 mM (as indicated in the individual experimental details). A final dilution of 10 mM tBHP was used for mouse eye organ culture experiments. These optimal concentrations were determined empirically in dose-response assessments as causing a high level of vital dye staining without killing cells. As soon as tBHP was added, all cultures were returned to the cell culture incubator under 5% CO2 atmosphere. Stressed cultures were compared to unstressed controls incubated similarly for the same time period. […]
(§2) A telomerase-immortalized line of human corneal limbal epithelial (HCLE) cells was used for all experiments employing cell culture. […] Stratification was routinely evaluated using phase contrast microscopy; differentiation leading to glycocalyx barrier function was evaluated using the rose bengal penetration assay. […]
(§3) Vital dye staining of cells in culture was performed using sodium fluorescein (Sigma-Aldrich). […] Dye uptake was evaluated qualitatively by imaging. Images (excitation/emission=488/510 nm) were taken immediately after washing, so that staining could be evaluated before dye diffused. Fluorescein uptake by cultured cells was quantified using a plate reader and depicted in graphs as relative fluorescence units (RFU). Rose bengal uptake by cultured cells or eyes was quantified using a modification of a previously described method. […]

[3] = tested on: HCLE stratified cultures; assay: Vital dye staining assay (fluorescein, rose bengal), oxidative stress, stratified and differentiated cells; assay type: cell-based, human; settings: 10 mM tBHP; Genistein 200 uM, Chlorpromazine 8 ug/mL, Dynasore 40 uM, Dyngo-4a 15 uM; FIG. 3B-D
Source text: (§4) The purpose of this study was to investigate mechanisms of dye uptake relevant to ocular surface disease. We hypothesized that stimulation of plasma membrane remodeling by sublethal cell damage would result in vital dye uptake into endocytic repair vesicles. Oxidative stress has been implicated in ocular surface damage due to dry eye and many other ocular surface disorders, thus we chose this as the damaging stress for our study. An aqueous stock solution of tert-butyl hydroperoxide (tBHP) was diluted into the medium of human cell cultures or mouse eye organ cultures as we have previously described. The final dilution of tBHP used for cell culture experiments was 3 mM or 10 mM (as indicated in the individual experimental details). A final dilution of 10 mM tBHP was used for mouse eye organ culture experiments. These optimal concentrations were determined empirically in dose-response assessments as causing a high level of vital dye staining without killing cells. As soon as tBHP was added, all cultures were returned to the cell culture incubator under 5% CO2 atmosphere. Stressed cultures were compared to unstressed controls incubated similarly for the same time period. Cells were incubated for 2 to 3 hours and mouse eyes were incubated for 2.5 hours before endpoint determination.
(§5) To learn whether endocytosis was involved in dye uptake, the process was blocked by treating cells or eyes with endocytic inhibitors. Chlorpromazine hydrochloride (MP Biologicals, Solon, Ohio), an inhibitor of clathrin-mediated endocytosis, was used at a final dilution of 8 ug/mL. Genistein (Sigma-Aldrich, St Louis, Mo.), an inhibitor of caveolin-mediated endocytosis, was used at 200 uM final dilution. […] All inhibitors were dissolved in DMSO, which served as the treatment vehicle. The same volume of DMSO was added to matching untreated cultures as a vehicle control.
as §2, §3

[4] = tested on: ocular surface of ex vivo mouse eyes; assay: Vital dye staining assay, mouse eye organ culture under oxidative stress; settings: for vital dye uptake once the damage was done: used after stress was applied; for dye uptake at the ocular surface, post-treatment: 10 mM tBHP first, FIG. 4B
Source text: as §4, §5
The University of Southern California's Institutional Animal Care and Use Committee approved the research protocol number 11412 for use of mice in this study. Research was conducted in adherence with the Association for Research in Vision and Ophthalmology (ARVO) Statement for the Use of Animals in Ophthalmic and Visual Research. Wild type C57B1/6J mice, 6-8 weeks of age, were purchased from Jackson Labs (Bar Harbor, Me.). Prior to use in an experiment, mice were housed in a pathogen-free barrier facility and kept at […], relative humidity 60%±10%, with alternating 12-hour light/dark cycles. To obtain eyes for organ culture, euthanasia was performed using compressed CO2 gas, according to the American Veterinary Medical Association Guidelines for the Euthanasia of Animals: 2013 Edition. […]
Vital dye staining of cells in culture was performed using sodium fluorescein (Sigma-Aldrich). […] Dye uptake was evaluated qualitatively by imaging. Images (excitation/emission=488/510 nm) were taken immediately after washing, so that staining could be evaluated before dye diffused. Fluorescein uptake by cultured cells was quantified using a plate reader and depicted in graphs as relative fluorescence units (RFU). Rose bengal uptake by cultured cells or eyes was quantified using a modification of a previously described method. After imaging, the stained cells or eyes were incubated in 100 uL of DMSO at room temperature for 1 hour, and the solution was recovered into the wells of a 96 well plate to read in a plate reader at 562 nm.

[5] = tested on: HCLE monolayer cultures; assay: Endocytosis assay: uptake of Alexa Fluor 568-conjugated TF under oxidative stress; assay type: cell-based, human; settings: 3 mM tBHP; co-treatment with Dynasore 40 uM; FIG. 2A
Source text: (§6) The purpose of this study was to investigate mechanisms of dye uptake relevant to ocular surface disease. We hypothesized that stimulation of plasma membrane remodeling by sublethal cell damage would result in vital dye uptake into endocytic repair vesicles. Oxidative stress has been implicated in ocular surface damage due to dry eye and many other ocular surface disorders, thus we chose this as the damaging stress for our study. An aqueous stock solution of tert-butyl hydroperoxide (tBHP) was diluted into the medium of human cell cultures or mouse eye organ cultures as we have previously described. […] These optimal concentrations were determined empirically in dose-response assessments as causing a high level of vital dye staining without killing cells. […]
as §2
Endocytosis was quantified by monitoring cell uptake of human Alexa Fluor 568-conjugated TF (serum transferrin; Thermo Fisher Scientific, Waltham, Mass.). […] Cells were then imaged with a Keyence BZ-X700 fluorescence microscope (excitation/emission=532/588 nm). Alexa Fluor 568-conjugated TF uptake was quantified by image J analysis.

[6] = tested on: HCLE monolayer cultures; assay: MTT/WST-1 metabolic assays for cytotoxicity; assay type: cell-based, human; settings: 10 mM tBHP, 2 hours; Dynasore 40 uM at the same time; FIG. 5A
Source text: as §1, with “atmosphere.” for “atmosphere. Stressed cultures were compared to unstressed controls incubated similarly for the same time period.”
as §2

[7] = tested on: HCLE monolayer cultures; assay: Trypan blue exclusion assay; assay type: cell-based, human; settings: 10 mM tBHP, 3 hours; Dynasore 40 uM at the same time; FIG. 5B
Source text: as §6, §2
Cells were stained with filtered 0.4% trypan blue dye (Thermo Fisher Scientific) for 4 minutes following 3 washes with PBS. The extent of staining was measured qualitatively by imaging under white light, and quantitatively using a plate reader at 590 nm.

[8] = tested on: HCLE stratified cultures; assay: Lectin binding (fluorescein-conjugated jacalin); assay type: cell-based, human; settings: 3 mM tBHP, 2 hours; Dynasore 40 uM; FIG. 6A
Source text: as §1, with “atmosphere.” for “atmosphere. Stressed cultures were compared to unstressed controls incubated similarly for the same time period.”
as §2

[9] = tested on: LGALS3; assay: Western blotting of LGALS3 in cell culture medium; assay type: cell-based, human; settings: stratified cultures, 3 mM tBHP, 2 hours; Dynasore 40 uM; FIG. 6B
Source text: as §1, with “atmosphere.” for “atmosphere. Stressed cultures were compared to unstressed controls incubated similarly for the same time period.”
as §2

[10] = tested on: MPS-treated monolayer cells; settings: publication [61]; cited from earlier work
[11] = tested on: cardiomyocyte; settings: references [56-58]; cited from earlier work

CLU: homeostatic protein clusterin, prominent at fluid-tissue interfaces; SEQ ID NO: 1 is the human isoform 2 preproprotein
ocular surface barrier disruption [1]: prevents and ameliorates ocular surface barrier disruption

CN(C)CCCN1c2ccccc2Sc2ccc(Cl)cc21 [Chlorpromazine, Chlorpromazine hydrochloride]
stress-stimulated fluorescein dye uptake [2]: blocked
oxidative stress-stimulated vital dye uptake in stratified and differentiated cell cultures [3]: no effect on vital dye uptake

O=C(N/N=C/c1cc(O)c(O)cc1O)c1cc2ccccc2cc1O [Dyngo-4a]
oxidative stress-stimulated vital dye uptake in stratified and differentiated cell cultures [3]: very effective inhibitor of vital dye uptake
vital dye uptake once the damage was done [4]: no effect on vital dye uptake

O=C(N/N=C/c1ccc(O)c(O)c1)c1cc2ccccc2cc1O [Dynasore]
stress-stimulated TF uptake (endocytosis) [5]: blocked stress-stimulated TF uptake
stress-stimulated fluorescein dye uptake [2]: also blocked
oxidative stress-stimulated vital dye uptake in stratified and differentiated cell cultures [3]: very effective inhibitor
dye uptake at the ocular surface, post-treatment ([4]; then Dynasore 40 uM for 15 or 30 minutes): dye uptake was not reduced
dye uptake at the ocular surface, post-treatment ([4]; then Dynasore 80 uM for 15 or 30 minutes): dye uptake was not reduced
dye uptake at the ocular surface, co-treatment ([4]; 10 mM tBHP, Dynasore 40 uM at the same time as stress, FIG. 4A): dye uptake was prevented
vital dye uptake once the damage was done [4]: no effect on vital dye uptake
protection against oxidative stress-induced increase of MTT/WST-1 absorbance [6]: protective, in particular for the WST-1 assay
protection against oxidative stress-induced trypan blue staining [7]: remarkably protective, essentially eliminating trypan blue staining
jacalin staining of cell surface mucin-type glycoconjugates [8]: no effect
oxidative stress-caused increase in LGALS3 in the cell culture medium [9]: inhibited this increase
uptake of fluorescein in MPS-treated cells [10]: inhibited uptake of fluorescein
cardiomyocyte apoptosis following oxidative stress [11]: protects cardiomyocyte against entering apoptosis following oxidative stress

O=c1c(-c2ccc(O)cc2)coc2cc(O)cc(O)c12 [Genistein]
stress-stimulated fluorescein dye uptake [2]: blocked
oxidative stress-stimulated vital dye uptake in stratified and differentiated cell cultures [3]: no effect on vital dye uptake
